# Results from publication PMC9496321, “6-Furopyridine Hexamethylene Amiloride Is a Non-Selective P2X7 Receptor Antagonist” (Biomolecules, 2022).
# What was measured:
# hP2X7 [1] = molecular target: T1, hP2X7 (Homo sapiens, UniProt Q99572); experiment: ATP-induced ethidium+ uptake in stably transfected HEK-hP2X7 cells (flow cytometry); format: cell-based; settings: any concentration up to 30 μM, 450 μM ATP, HEK-hP2X7 cells
# T1 construct: expressed in transfected cells; host or cells: HEK293 cells, stably transfected (HEK-hP2X7)
# T1 sequence (Q99572 1-595): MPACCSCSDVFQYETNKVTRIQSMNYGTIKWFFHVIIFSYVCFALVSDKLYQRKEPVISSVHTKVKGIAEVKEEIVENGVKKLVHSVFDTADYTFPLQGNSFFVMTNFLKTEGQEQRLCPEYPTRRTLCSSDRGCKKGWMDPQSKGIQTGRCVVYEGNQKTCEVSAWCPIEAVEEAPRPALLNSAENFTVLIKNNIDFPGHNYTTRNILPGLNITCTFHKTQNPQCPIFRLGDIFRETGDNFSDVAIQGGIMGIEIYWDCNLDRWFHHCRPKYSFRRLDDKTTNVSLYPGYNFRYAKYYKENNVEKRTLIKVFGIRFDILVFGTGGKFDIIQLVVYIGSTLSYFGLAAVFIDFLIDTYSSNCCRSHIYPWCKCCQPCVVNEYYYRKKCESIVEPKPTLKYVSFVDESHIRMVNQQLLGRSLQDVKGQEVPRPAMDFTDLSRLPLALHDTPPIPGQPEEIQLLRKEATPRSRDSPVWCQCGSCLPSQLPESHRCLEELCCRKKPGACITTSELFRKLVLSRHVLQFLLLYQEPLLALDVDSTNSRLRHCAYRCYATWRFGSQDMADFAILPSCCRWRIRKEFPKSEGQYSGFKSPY
# endogenous hP2X7 = molecular target: T2, endogenous hP2X7 (Homo sapiens, UniProt Q99572); experiment: ATP-induced ethidium+ uptake in RPMI8226 multiple myeloma cells (flow cytometry); format: cell-based; settings: any concentration up to 30 μM, 300 μM ATP, RPMI8226 cells
# T2 construct: endogenous in cells; host or cells: RPMI8226 cells
# T2 sequence (Q99572 1-595): T1 sequence (Q99572 1-595)
# P2X7 [2] = molecular target: T3, P2X7 (Homo sapiens, UniProt Q99572); experiment: Plate-based flow cytometric YO-PRO-1 dye uptake compound screen in RPMI8226 cells; format: cell-based; design: endogenous in cells; host or cells: RPMI8226 cells; settings: 5 μM compound, 250 μM ATP; also previous studies
# T3 sequence (Q99572 1-595): T1 sequence (Q99572 1-595)
# Procedure: RPMI8226 cells were washed thrice with low-divalent medium (LDM) (145 mM NaCl, 2 mM KCl, 0.2 mM CaCl2, 13 mM D-glucose and 10 mM HEPES, pH 7.5) and 1 × 10^5 cells were added to each well of a 96-well flat-bottomed plate. Amiloride derivatives, at 10 μM (final concentration 5 μM) or vehicle (DMSO) were added, and plates pre-incubated (37 °C, 15 min). […] Wells were washed twice with LDM (300× g, 5 min) and cells were resuspended in LDM. Data was acquired with an Attune NxT Flow Cytometer an Autosampler (Thermo Fisher Scientific). Mean fluorescent intensity (MFI) of YO-PRO-1^+ uptake was determined using FlowJo.
# P2X7 [3] = molecular target: T3, P2X7; settings: human leukaemic lymphocytes, cited from earlier work; for inhibition of ATP-induced Na+ fluxes: 40 μM compound
# [4] = system: hP2X7-mediated IL-1β release; experiment: Whole blood IL-1β release assay; format: cell-based; settings: 30 μM compound, 6 mM ATP, LPS-primed human whole blood
# Procedure: Whole blood IL-1β release assays were conducted as described. Briefly, whole human blood was mixed with an equal volume of serum-free RPMI-1640 medium containing LPS (200 ng/mL), added to a flat-bottom 96-well plate and incubated (37 °C, 95% air/5% CO2, 105 min). Compounds (30 μM) or vehicle (DMSO) were added to respective wells and incubated (37 °C, 95% air/5% CO2, 15 min). […] Plates were centrifuged (700× g, 10 min) with the resulting supernatants collected and stored at −80 °C. hIL-1β concentrations were determined using a Human IL-1β ELISA (Thermo Fisher Scientific) according to the manufacturer’s instructions. Samples above the detection limit (7500 pg/mL) were set at 7500 pg/mL for statistical analysis.
# P2X7 [5] = molecular target: T3, P2X7; experiment: ATP-induced YO-PRO-1 uptake into human T cells (PBMCs); format: cell-based; design: Human peripheral blood mononuclear cells (PBMCs) were pre-incubated with DMSO (vehicle) or 30 μM 6-FPHMA; endogenous in cells; host or cells: cryopreserved human PBMCs (CD3+, CD4+, CD8+ T cells), four donors; settings: 30 μM compound, 1 mM ATP
# Procedure: ATP-mediated uptake assays were conducted as described with either ethidium bromide or YO-PRO-1 iodide. Briefly, RPMI8226, HEK-hP2X7, HEK-mP2X7, HEK-cP2X7 or cryopreserved human peripheral blood mononuclear cells (PBMCs) were washed thrice with LDM (300× g, 5 min), resuspended in LDM and 1 × 10^6 cells were added to individual tubes. Cells were pre-incubated in the absence of compound (37 °C, 5 min) or in the presence of compound or vehicle (DMSO) (37 °C, 15 min) as indicated. […] An equal volume of ice-cold Mg^2+ stop solution was added and cells centrifuged (300× g, 5 min). Cells were washed twice in LDM (300× g, 5 min), resuspended and data were collected with an LSR Fortessa X-20 flow cytometer. MFI of ethidium^+ or YO-PRO-1^2+ was determined using FlowJo.
# hP2X7 [6] = molecular target: T1, hP2X7; design: method as in PMID 11181928; settings: 16 μM BzATP; cited from earlier work
# P2X7 [7] = molecular target: T3, P2X7; design: endogenous in cells; settings: human leukemic B cells, cited from earlier work
# mP2X7 = system: mP2X7; design: method as in PMID 11181928; settings: cited from earlier work
# mouse (m) P2X7 = system: mouse (m) P2X7; design: method as in PMID 7514597; settings: 40 μM compound, Xenopus oocytes with mP2X7 mRNA; cited from earlier work
# human (h) P2X7 = system: human (h) P2X7; design: method as in PMID 9720806; settings: 10 μM compound, HEK-hP2X7 cells; cited from earlier work
compound,measurement,setting,value
"N=C(N)NC(=O)c1nc(-c2cc3cnccc3o2)c(N)nc1N [6-FPA, 6-furopyridine-substituted amiloride]",inhibition of hP2X7-mediated dye uptake,hP2X7 [1],did not inhibit
same,inhibition of hP2X7-mediated dye uptake,endogenous hP2X7,did not inhibit
N=C(N)NC(=O)c1nc(Cl)c(N)nc1N [Amiloride],block of hP2X7 in screening assay,P2X7 [2],blocks hP2X7 relatively poorly
same,inhibition of ATP-mediated Na+ fluxes,P2X7 [3]; 1 mM compound,50%
"CCOc1ccc(Nc2ccc(/C(=C3C=C/C(=[N+](/CC)Cc4cccc(S(=O)(=O)[O-])c4)C=C/3C)c3ccc(N(CC)Cc4cccc(S(=O)(=O)O)c4)cc3C)cc2)cc1 [BBG, Brilliant Blue G]",reduction of ATP-induced IL-1β compared to vehicle control,[4],did not alter
same,reduction of ATP-induced YO-PRO-1 uptake into CD3+ T cells,P2X7 [5],90 ± 8%
same,reduction of ATP-induced YO-PRO-1 uptake into CD4+ T cells,P2X7 [5],83 ± 17%
same,reduction of ATP-induced YO-PRO-1 uptake into CD8+ T cells,P2X7 [5],72 ± 22%
"CCN(c1nc(N)c(C(=O)N=C(N)N)nc1Cl)C(C)C [EIPA, 5-(N-ethyl-N-isopropyl) amiloride]",inhibition of ATP-induced Na+ fluxes,P2X7 [3],72%
"NC(N)=NC(=O)c1nc(Cl)c(N2CCCCCC2)nc1N [HMA, 5-(N,N-hexamethylene) amiloride]","potentiation of dye uptake at low BzATP, hP2X7",hP2X7 [6],not observed
same,inhibition of ATP-induced ethidium+ uptake,P2X7 [7]; 20 μM compound,50%
same,concentration required for complete inhibition of ATP-induced ethidium+ uptake,P2X7 [7],> 100 µM
same,effect on mP2X7-mediated dye uptake at low BzATP,mP2X7; 16 μM BzATP,potentiated
same,"potency of inhibition of BzATP-induced uptake, mP2X7 compared to hP2X7",mP2X7; HEK293 cells,reduced potency
same,inhibition of ATP-induced Na+ fluxes,P2X7 [3],95%
same,inhibition of ATP- and BzATP-induced currents,mouse (m) P2X7,partially inhibited
same,inhibition of BzATP-induced inward currents,human (h) P2X7,30%
O=C(NCC1(N2CCN(c3ccccc3)CC2)CCOCC1)c1cccnc1Sc1ccccc1 [JNJ-47965567],reduction of ATP-induced IL-1β compared to vehicle control,[4],98 ± 1%
same,reduction of ATP-induced YO-PRO-1 uptake into CD3+ T cells,P2X7 [5],79 ± 14%
same,reduction of ATP-induced YO-PRO-1 uptake into CD4+ T cells,P2X7 [5],78 ± 15%
same,reduction of ATP-induced YO-PRO-1 uptake into CD8+ T cells,P2X7 [5],80 ± 11%
"Cc1nc(N=Nc2ccc(S(=O)(=O)O)cc2S(=O)(=O)O)c(COP(=O)(O)O)c(C=O)c1O [PPADS, Pyridoxalphosphate-6-azophenyl-2′,4′-disulfonic acid]",reduction of ATP-induced IL-1β compared to vehicle control,[4],did not alter
same,reduction of ATP-induced YO-PRO-1 uptake into CD3+ T cells,P2X7 [5],85 ± 9%
same,reduction of ATP-induced YO-PRO-1 uptake into CD4+ T cells,P2X7 [5],85 ± 11%
same,reduction of ATP-induced YO-PRO-1 uptake into CD8+ T cells,P2X7 [5],86 ± 7%
